Source: ChEMBL document CHEMBL6087456 (J Med Chem, 2025)
In brackets after ≈: the same amount, converted by molar mass.

Columns and labels:
[1] = test system: Plasmodium falciparum; test: Antiparasitic activity against asexual blood stage Plasmodium falciparum 3D7 incubated for 72 hrs by SYBR Green assay; format: functional, organism-based; conditions: 3D7, 72 h
[2] = Volume of distribution at steady state in overnight-fasted male Sprague-Dawley rat at 3 mg/kg, po or 1 mg/kg, iv measured upto 72 hrs by LCMS analysis; format: ADME, organism-based; conditions: in vivo
[3] = Protein binding in human hepatocytes; format: ADME, cell-based, Hepatocyte; conditions: read-out: PB (converted)
[4] = Partition coefficient, log D of compound at pH 7.4 measured after 24 hrs by LCMS analysis; format: physicochemical; conditions: octanol/water, pH 7.4, 24 h
[5] = biological target: Albumin (Homo sapiens, UniProt P02768); test: Protein binding to albumin (unknown origin) in ALBUMAX medium; format: ADME; conditions: read-out: PB (converted)
[6] = Plasma protein binding in human measured for 6 hrs by rapid equilibrium dialysis; format: ADME, cell-free
[7] = Kinetic solubility of compound at pH 6.5 measured after 30 mins by nephelometry; format: physicochemical; conditions: buffer, pH 6.5, read-out: Kinetic_solubility
[8] = Plasma protein binding in rat measured for 6 hrs by rapid equilibrium dialysis; format: ADME, cell-free
[9] = Metabolic stability in human liver microsomes assessed as intrinsic clearance at 0.5 uM incubated for 60 mins in presence of NADPH by tandem quadrupole-Time of Flight MS; format: ADME, Microsome; conditions: 1 h
[10] = Oral absorption in overnight-fasted male Sprague-Dawley rat at 3 mg/kg measured upto 72 hrs by LCMS analysis; format: ADME, organism-based; conditions: in vivo
[11] = Drug excretion in Sprague-Dawley rat urine at 1 mg/kg, iv; format: ADME, organism-based; conditions: read-out: Drug excretion
[12] = Cytotoxicity against human HepG2 cells by Cell Titer Glo assay; format: toxicity, cell-based
[13] = Permeability across apical to basal side in human Caco-2 cells; format: ADME, cell-based
[14] = biological target: Dihydroorotate dehydrogenase (quinone), mitochondrial (Homo sapiens, UniProt Q02127); test: Inhibition of C-terminal His6-tagged recombinant human DHODH (29 to 395 residues) N-terminally truncated soluble domain extracted from Escherichia coli phage resistant BL21-DE3 using CoQD/DHA/DCIP as substrates
[15] = biological target: Cytochrome P450 2C19 (Homo sapiens, UniProt P33261); test: Inhibition of CYP2C19 in human liver microsomes; format: ADME, Microsome
[16] = biological target: Cytochrome P450 3A4 (Homo sapiens, UniProt P08684); test: Inhibition of CYP3A4 in human liver microsomes; format: ADME, Microsome
[17] = biological target: Cytochrome P450 2D6 (Homo sapiens, UniProt P10635); test: Inhibition of CYP2D6 in human liver microsomes; format: ADME, Microsome
[18] = biological target: T1, Cytochrome P450 2B6 (Homo sapiens, UniProt P20813); test: Inhibition of CYP2B6 in human liver microsomes; format: ADME, Microsome
T1 sequence (P20813 whole entry): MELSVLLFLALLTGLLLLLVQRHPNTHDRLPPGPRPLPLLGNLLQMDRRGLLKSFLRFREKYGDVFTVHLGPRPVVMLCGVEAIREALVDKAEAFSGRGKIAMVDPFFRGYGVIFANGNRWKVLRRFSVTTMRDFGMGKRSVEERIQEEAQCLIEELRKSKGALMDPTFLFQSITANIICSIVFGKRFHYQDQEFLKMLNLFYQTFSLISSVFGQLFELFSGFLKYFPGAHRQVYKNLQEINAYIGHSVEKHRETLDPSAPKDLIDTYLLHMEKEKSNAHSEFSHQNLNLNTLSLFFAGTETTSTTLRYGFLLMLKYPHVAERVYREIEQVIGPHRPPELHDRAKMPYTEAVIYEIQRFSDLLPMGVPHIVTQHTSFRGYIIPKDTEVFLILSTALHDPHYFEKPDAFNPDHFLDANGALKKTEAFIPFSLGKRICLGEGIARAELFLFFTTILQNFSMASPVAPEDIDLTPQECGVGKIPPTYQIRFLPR

[19] = Ratio of drug concentration in Sprague-Dawley rat brain to plasma at 1 uM measured for 5 to 60 mins by LCMS analysis; format: ADME, cell-free; conditions: time 5-60 min
[20] = biological target: T2, Cytochrome P450 1A2 (Homo sapiens, UniProt P05177); test: Inhibition of CYP1A2 in human liver microsomes; format: ADME, Microsome
T2 sequence (P05177 whole entry): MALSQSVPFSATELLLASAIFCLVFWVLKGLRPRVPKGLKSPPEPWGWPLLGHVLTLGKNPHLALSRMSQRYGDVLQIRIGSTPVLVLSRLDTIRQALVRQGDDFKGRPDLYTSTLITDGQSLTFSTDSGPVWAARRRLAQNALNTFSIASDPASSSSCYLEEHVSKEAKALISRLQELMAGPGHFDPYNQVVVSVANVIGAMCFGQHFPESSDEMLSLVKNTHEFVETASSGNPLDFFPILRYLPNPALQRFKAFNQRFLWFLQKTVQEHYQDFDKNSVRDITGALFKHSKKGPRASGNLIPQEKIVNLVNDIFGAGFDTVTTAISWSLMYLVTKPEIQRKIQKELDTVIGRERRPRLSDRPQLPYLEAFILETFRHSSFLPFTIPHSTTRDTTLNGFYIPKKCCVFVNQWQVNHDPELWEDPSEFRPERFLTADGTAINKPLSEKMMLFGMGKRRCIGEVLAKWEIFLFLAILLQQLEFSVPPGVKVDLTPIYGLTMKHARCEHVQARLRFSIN

[21] = Oral bioavailability in overnight-fasted male Sprague-Dawley rat at 3 mg/kg measured upto 72 hrs by LCMS analysis; format: ADME, organism-based; conditions: in vivo
[22] = Cytotoxicity against human Jurkat cells by Cell Titer Glo assay; format: toxicity, cell-based
[23] = Selectivity index, ratio of IC50 for N-terminal His6-tagged recombinant Plasmodium falciparum DHODH (158 to 569 residues) N-terminally truncated soluble domain extracted from Escherichia coli phage resistant BL21-DE3 to IC50 for C-terminal His6-tagged recombinant Plasmodium vivax DHODH (158 to …
[24] = biological target: T3, Dihydroorotate dehydrogenase (quinone), mitochondrial (Plasmodium falciparum (isolate 3D7), UniProt Q08210); test: Inhibition of N-terminal His6-tagged recombinant Plasmodium falciparum DHODH (158 to 569 residues) N-terminally truncated soluble domain extracted from Escherichia coli phage resistant BL21-DE3 using CoQD/DHA/DCIP as substrates
T3 sequence (Q08210 whole entry): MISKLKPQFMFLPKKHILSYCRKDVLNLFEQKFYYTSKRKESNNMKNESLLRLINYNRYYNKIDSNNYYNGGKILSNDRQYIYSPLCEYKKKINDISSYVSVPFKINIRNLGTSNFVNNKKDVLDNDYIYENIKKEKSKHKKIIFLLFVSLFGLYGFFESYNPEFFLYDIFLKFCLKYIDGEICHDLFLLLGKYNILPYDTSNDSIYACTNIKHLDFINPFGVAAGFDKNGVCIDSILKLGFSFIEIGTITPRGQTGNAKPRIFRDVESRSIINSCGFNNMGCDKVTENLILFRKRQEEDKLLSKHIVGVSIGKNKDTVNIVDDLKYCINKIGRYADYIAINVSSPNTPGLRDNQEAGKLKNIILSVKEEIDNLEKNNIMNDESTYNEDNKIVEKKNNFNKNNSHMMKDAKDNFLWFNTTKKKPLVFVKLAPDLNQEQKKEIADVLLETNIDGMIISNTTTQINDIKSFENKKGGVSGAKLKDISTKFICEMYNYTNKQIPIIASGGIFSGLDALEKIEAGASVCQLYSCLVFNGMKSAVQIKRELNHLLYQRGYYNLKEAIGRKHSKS

[25] = Half life in human; format: ADME
[26] = test system: Plasmodium falciparum; test: Antiparasitic activity against ring-stage Plasmodium falciparum D10 transformed with yeast DHODH incubated for 72 hrs by SYBR Green assay; format: functional, organism-based; conditions: D10, 72 h

Dihydroorotate dehydrogenase (quinone), mitochondrial (Homo sapiens, UniProt Q02127), sequence (Q02127 whole entry, the tested form may be a part): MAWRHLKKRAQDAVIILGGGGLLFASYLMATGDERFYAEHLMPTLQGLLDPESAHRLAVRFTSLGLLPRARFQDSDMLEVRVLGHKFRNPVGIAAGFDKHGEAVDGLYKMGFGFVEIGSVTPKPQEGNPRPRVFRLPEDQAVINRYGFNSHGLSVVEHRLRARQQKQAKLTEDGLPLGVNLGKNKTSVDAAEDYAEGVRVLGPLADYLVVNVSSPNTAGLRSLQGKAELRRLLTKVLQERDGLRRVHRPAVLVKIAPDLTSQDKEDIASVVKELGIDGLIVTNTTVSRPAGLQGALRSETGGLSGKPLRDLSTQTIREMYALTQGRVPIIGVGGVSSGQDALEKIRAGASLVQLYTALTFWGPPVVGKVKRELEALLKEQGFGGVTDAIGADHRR
Albumin, sequence (P02768 whole entry): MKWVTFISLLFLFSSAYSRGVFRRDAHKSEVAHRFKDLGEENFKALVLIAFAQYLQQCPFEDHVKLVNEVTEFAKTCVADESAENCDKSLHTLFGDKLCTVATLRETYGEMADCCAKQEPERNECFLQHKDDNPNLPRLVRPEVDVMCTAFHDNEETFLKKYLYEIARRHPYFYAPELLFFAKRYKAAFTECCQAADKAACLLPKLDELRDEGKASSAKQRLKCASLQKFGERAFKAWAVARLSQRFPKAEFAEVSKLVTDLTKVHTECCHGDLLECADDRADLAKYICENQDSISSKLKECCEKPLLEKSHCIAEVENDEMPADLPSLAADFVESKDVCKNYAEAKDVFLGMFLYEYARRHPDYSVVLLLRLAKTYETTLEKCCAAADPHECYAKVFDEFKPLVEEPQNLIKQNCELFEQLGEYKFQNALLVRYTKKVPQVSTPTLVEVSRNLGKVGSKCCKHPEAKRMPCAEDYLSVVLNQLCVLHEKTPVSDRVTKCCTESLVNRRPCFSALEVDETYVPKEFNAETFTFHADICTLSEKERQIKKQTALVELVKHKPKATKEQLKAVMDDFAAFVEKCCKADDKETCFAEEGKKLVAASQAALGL
Cytochrome P450 2C19, sequence (P33261 whole entry): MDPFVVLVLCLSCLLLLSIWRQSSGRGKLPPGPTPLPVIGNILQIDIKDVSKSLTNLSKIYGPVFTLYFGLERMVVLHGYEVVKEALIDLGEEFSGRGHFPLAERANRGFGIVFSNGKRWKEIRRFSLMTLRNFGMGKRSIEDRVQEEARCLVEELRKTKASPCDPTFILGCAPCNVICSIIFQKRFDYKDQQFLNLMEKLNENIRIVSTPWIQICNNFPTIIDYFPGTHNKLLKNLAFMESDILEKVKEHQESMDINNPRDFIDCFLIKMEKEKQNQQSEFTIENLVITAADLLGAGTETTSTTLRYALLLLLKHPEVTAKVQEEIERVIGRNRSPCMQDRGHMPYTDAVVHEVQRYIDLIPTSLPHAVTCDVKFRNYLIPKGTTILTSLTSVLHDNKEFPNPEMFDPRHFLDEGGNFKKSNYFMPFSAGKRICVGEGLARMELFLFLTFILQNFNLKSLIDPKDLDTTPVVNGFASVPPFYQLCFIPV
Cytochrome P450 2D6, sequence (P10635 whole entry): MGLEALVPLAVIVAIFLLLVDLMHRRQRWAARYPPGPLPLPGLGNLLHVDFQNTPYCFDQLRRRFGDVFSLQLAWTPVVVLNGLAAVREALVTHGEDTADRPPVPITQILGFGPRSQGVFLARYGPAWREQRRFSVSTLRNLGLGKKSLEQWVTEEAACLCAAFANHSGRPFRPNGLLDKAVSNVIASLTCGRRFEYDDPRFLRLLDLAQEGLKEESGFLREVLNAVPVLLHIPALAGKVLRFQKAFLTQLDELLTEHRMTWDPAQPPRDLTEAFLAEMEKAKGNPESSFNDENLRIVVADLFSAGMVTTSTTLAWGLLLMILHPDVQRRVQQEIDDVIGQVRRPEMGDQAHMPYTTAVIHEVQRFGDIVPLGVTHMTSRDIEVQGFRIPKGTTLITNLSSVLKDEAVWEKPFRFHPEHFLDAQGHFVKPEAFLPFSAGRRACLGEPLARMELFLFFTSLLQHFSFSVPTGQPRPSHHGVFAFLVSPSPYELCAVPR
Cytochrome P450 3A4, sequence (P08684 whole entry): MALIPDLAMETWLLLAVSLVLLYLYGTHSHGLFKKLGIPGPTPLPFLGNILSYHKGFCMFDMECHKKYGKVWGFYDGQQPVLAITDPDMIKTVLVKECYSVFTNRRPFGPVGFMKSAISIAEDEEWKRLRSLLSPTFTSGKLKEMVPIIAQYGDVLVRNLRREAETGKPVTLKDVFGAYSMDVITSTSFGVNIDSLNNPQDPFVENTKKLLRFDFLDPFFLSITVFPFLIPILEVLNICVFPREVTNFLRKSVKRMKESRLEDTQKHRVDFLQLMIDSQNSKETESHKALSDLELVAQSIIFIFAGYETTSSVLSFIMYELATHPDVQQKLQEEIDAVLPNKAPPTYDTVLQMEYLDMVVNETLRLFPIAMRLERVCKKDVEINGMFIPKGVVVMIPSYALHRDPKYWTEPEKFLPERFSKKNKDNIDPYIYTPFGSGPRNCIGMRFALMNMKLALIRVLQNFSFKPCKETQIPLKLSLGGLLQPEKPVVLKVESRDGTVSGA

SMILES | fraction unbound [3] | logD [4] | fraction unbound [5] | PPB [6] | solubility kinetic at 0.5 h [7] | PPB [8] | intrinsic clearance (CLint) [9] | Fa at 72 h [10] | EC50 [1] | dose excreted [11] | CC50 [12] | IC50 [14] | F [21] | CC50 [22] | other results
CCOC(=O)c1nn(C)c(Cc2ccc(C(F)(F)F)nc2)c1C |  |  |  |  |  |  |  |  | 0.19 µM |  |  | > 100 µM |  |  | Ratio IC50 [23]: 4; IC50 [24]: 0.36 µM
Cc1c(C2(c3ccc(C(F)(F)F)nc3)CC2)c[nH]c1C(=O)N[C@H](C)c1nc[nH]n1 |  |  |  |  |  |  |  |  |  |  |  |  |  |  | half-life [25]: > 100 h
CC[C@@](O)(c1cnc(C(F)(F)F)c(Cl)c1)c1c2cnn(C3CC3)c(=O)c2nn1C |  |  | 0.709 | 78.2% | 25 µM (≈ 10.7 µg/mL) | 84.9% | < 3 µL/min/mg | 81% | 0.003 µM | < 1% | > 20 µM | > 30 µM | 80% | > 20 µM | EC50 [26]: 3.8 µM

Continued, in another order:

fraction unbound [3] | logD [4] | fraction unbound [5] | PPB [6] | solubility kinetic at 0.5 h [7] | PPB [8] | intrinsic clearance (CLint) [9] | Fa at 72 h [10] | SMILES | EC50 [1] | dose excreted [11] | CC50 [12] | IC50 [14] | F [21] | CC50 [22] | other results
0.676 | 2.4 | 0.511 | 94% | 40 µM (≈ 17.1 µg/mL) | 89.4% | < 3 µL/min/mg | 67% | CC[C@@](O)(c1cnc(C(F)(F)F)c(Cl)c1)c1c2ccn(C3CC3)c(=O)c2nn1C | 0.001 µM |  |  |  |  |  | Vdss [2]: 1.22 L/kg
0.249 | 2.3 | 0.338 | 68.5% | 20 µM (≈ 9.34 µg/mL) | 75.9% | < 3 µL/min/mg | 100% | Cn1nc2c(=O)n(C3CC3)ccc2c1[C@](O)(c1cnc(C(F)(F)F)c(Cl)c1)C(F)(F)F | 0.001 µM | < 1% | > 20 µM | > 30 µM | > 63% | > 20 µM | permeability [13]: Permeable; IC50 [15]: 6.7 µM; IC50 [16]: > 20 µM; IC50 [17]: > 20 µM; IC50 [18]: > 20 µM; BPR [19]: 0.79; IC50 [20]: > 20 µM
